Values quoted from earlier work as cited in EP0435915B1, “COMPOSITIONS FOR THE TREATMENT OF LEISHMANIASIS” (priority 1988, dated 1990).

Test system: leishmaniasis lesions
Conditions: reported by GB-A-2117237; result in words

Structure (SMILES): NC[C@@H]1O[C@H](O[C@H]2[C@@H](O)[C@H](O[C@@H]3[C@@H](O)[C@H](N)C[C@H](N)[C@H]3O[C@H]3O[C@H](CO)[C@@H](O)[C@H](O)[C@H]3N)O[C@@H]2CO)[C@H](N)[C@@H](O)[C@@H]1O [paromomycin, 0-2,6-diamino-2,6-dideoxy-β-L-idopyranosyl-(1→3)-0-β-D-ribofuranosyl-(1→5)-0-[2-amino-2-deoxy-α-D-glucopyranosyl-(1→4)]-2-deoxystreptamine]
- effect when applied topically to leishmaniasis lesions: ineffective
